These results are taken from patent US8871753B2, “Macrocyclic compounds and their use as kinase inhibitors” (Incyte Corporation, priority 2008, dated 2014).

The structures appear in SMILES notation. Structures can show the parent of a compound that is named as a salt. Where two headings read alike, the source gives them in different places.

Common to all, as to type: biochemical
The target of test [1] is T1, human JAK1 (a.a. 837-1142) (Homo sapiens, UniProt P23458).
T1 construct: human JAK1 (a.a. 837-1142); His tag (N); made in house; host or cells: insect cells (baculovirus)
The test can be described thus: In vitro JAK kinase assay (HTRF, phosphorylation of a biotinylated peptide), JAK1. The note with it: read-out: JAK1 IC50. The method, boiled down:
(§1)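 Phosphorylation of a biotinylated peptide by the JAK kinase domain, detected by HTRF with Eu-Py20 and SA-APC. ATP was 90 μM for JAK1, 30 μM for JAK2 and 3 μM for JAK3. Reactions ran 1 h at room temperature and were stopped with EDTA, followed by 40 min antibody binding.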

For test [2], the target named is T2, human JAK3 (a.a. 781-1124) (Homo sapiens, UniProt P52333).
T2 construct: JAK3 (a.a. 781-1124); His tag (N); made in house; host or cells: insect cells (baculovirus)
Nature of the test: In vitro JAK kinase assay (HTRF, phosphorylation of a biotinylated peptide), JAK3. In short, it runs like this: as §1

Test [3] has as its target T3, human JAK2 (a.a. 828-1132) (Homo sapiens, UniProt O60674).
T3 construct: JAK2 (a.a. 828-1132); His tag (N); made in house; host or cells: insect cells (baculovirus)
The test can be described thus: In vitro JAK kinase assay (HTRF, phosphorylation of a biotinylated peptide), JAK2. In short, it runs like this:
as §1

The target in another test is TYK2 (Homo sapiens, UniProt P29597). Nature of the test: TYK2 kinase inhibition (Table A1).
Sequence of TYK2 (P29597 whole entry): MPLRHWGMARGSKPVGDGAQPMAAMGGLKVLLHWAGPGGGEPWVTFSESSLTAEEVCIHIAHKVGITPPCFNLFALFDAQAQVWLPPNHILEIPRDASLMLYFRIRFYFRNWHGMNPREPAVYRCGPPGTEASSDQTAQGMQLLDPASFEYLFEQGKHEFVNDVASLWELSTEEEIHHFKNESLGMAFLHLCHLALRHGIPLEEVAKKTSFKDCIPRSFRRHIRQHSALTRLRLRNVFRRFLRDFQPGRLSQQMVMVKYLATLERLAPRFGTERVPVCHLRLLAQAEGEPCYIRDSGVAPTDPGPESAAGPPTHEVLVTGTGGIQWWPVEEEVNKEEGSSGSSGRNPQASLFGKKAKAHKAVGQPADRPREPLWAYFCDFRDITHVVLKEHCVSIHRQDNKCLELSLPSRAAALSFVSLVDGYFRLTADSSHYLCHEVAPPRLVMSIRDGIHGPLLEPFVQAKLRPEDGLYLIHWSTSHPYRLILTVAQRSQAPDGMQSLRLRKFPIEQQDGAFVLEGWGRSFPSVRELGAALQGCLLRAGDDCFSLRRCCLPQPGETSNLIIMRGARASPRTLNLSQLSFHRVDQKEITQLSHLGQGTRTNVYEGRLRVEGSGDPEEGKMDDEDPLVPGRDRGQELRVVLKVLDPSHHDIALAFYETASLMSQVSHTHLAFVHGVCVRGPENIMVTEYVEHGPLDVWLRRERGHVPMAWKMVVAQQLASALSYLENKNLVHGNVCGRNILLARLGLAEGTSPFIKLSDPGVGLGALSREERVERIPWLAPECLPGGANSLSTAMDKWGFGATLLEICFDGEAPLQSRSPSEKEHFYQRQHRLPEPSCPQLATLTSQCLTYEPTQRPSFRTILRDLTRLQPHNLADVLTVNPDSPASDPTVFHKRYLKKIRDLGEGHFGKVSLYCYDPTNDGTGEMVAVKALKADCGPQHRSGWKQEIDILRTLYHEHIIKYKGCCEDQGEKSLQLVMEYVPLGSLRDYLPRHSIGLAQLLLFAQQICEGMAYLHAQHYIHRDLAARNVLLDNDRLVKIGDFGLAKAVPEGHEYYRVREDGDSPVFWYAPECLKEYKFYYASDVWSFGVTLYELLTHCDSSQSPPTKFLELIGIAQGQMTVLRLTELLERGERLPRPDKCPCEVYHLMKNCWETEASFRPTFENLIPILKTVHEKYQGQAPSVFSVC

T3 sequence (O60674 828-1132): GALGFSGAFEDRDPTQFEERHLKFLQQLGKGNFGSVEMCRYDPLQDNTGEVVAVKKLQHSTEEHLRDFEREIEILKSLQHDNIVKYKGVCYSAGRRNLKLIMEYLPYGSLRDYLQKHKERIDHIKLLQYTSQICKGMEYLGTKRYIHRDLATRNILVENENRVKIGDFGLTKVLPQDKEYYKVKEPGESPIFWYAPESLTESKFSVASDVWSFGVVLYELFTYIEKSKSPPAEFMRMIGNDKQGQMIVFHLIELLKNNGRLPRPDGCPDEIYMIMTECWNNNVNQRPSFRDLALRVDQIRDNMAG
T2 sequence (P52333 781-1124): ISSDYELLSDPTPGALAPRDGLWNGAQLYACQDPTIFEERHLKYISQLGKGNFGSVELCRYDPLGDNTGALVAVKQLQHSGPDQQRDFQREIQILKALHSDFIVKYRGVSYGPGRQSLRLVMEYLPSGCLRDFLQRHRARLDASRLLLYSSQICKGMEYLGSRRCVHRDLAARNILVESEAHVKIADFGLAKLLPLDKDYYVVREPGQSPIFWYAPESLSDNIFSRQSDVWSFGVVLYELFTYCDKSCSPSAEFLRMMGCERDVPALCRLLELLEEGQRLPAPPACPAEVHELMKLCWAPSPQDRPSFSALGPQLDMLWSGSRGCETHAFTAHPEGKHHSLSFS
T1 sequence (P23458 849-1154): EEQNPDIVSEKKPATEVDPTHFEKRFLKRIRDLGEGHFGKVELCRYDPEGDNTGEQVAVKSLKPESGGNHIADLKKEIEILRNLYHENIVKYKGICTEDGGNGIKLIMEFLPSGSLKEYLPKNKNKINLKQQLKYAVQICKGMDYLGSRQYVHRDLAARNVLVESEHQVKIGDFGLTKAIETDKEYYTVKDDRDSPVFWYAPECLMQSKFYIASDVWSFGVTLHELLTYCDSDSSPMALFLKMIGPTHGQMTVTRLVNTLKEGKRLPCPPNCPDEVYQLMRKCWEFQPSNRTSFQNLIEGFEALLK

With `Cc1cc(CC(=O)Nc2ccc3cc2CCc2cccc(c2)Nc2ncc(Cl)c(n2)N3)on1` [Example C30, N-[6-Chloro-2,4,8,22-tetraazatetracyclo[14.3.1.1(3,7).1(9,13)]docosa-1(20),3(22),4,6,9(21),10,12,16,18-nonaen-12-yl]-2-(3-methylisoxazol-5-yl)acetamide trifluoroacetate], the half-inhibitory concentration (IC50) in test [1] was 31 nM; in test [2], 990 nM; in test [3], 56 nM; on TYK2 it was 136 nM.
Take `O=C(COc1ccc2cc1CCc1cncc(c1)Nc1ncc(Cl)c(n1)N2)N1CCN(C(=O)c2ccno2)CC1` [Example D260, 6-Chloro-12-{2-[4-(isoxazol-5-ylcarbonyl)piperazin-1-yl]-2-oxoethoxy}-2,4,8,18,22-pentaazatetracyclo[14.3.1.1(3,7).1(9,13)]docosa-1(20),3(22),4,6,9(21),10,12,16,18-nonaene bis(trifluoroacetate)]: the IC50 in test [1] (Table D1) was 15 nM; in test [2] (Table D1), over 400 nM; in test [3] (Table D1) it was 22 nM; against TYK2 (Table D1) it was 288 nM.
Take `Cc1cc(C(=O)N2CCC(CC(=O)Nc3ccc4cc3CCc3cccc(c3)Nc3ncc(C)c(n3)N4)CC2)no1` [Example C54, 2-{1-[(5-Methylisoxazol-3-yl)carbonyl]piperidin-4-yl}-N-[6-methyl-2,4,8,22-tetraazatetracyclo[14.3.1.1(3,7).1(9,13)]docosa-1(20),3(22),4,6,9(21),10,12,16,18-nonaen-12-yl]acetamide trifluoroacetate]: the IC50 is 65 nM in test [1], over 200 nM in test [2], 199 nM in test [3] and 199 nM on TYK2.
For the compound `CC(=O)N1CCC[C@H](CC(=O)Nc2ccc3cc2CCc2cncc(c2)Nc2ncc(Cl)c(n2)N3)C1` [Example D205, 2-[(3R)-1-Acetylpiperidin-3-yl]-N-[6-chloro-2,4,8,18,22-pentaazatetracyclo[14.3.1.1(3,7).1(9,13)]docosa-1(20),3(22),4,6,9(21),10,12,16,18-nonaen-12-yl]acetamide bis(trifluoroacetate)], the IC50 in test [1] (Table D1) worked out at 7.1 nM; in test [2] (Table D1), 107 nM; in test [3] (Table D1), 15 nM; against TYK2 (Table D1) it was 25 nM.
Regarding `O=C(Nc1cccs1)N1CCC(CCOc2ccc3cc2CCc2cncc(c2)Nc2ncc(Cl)c(n2)N3)CC1` [Example D167, 4-(2-{[6-Chloro-2,4,8,18,22-pentaazatetracyclo[14.3.1.1(3,7).1(9,13)]docosa-1(20),3(22),4,6,9(21),10,12,16,18-nonaen-12-yl]oxy}ethyl)-N-2-thienylpiperidine-1-carboxamide bis(trifluoroacetate)], the IC50 in test [1] (Table D1) is 57 nM; in test [2] (Table D1) it was over 400 nM; in test [3] (Table D1), 244 nM; against TYK2 (Table D1) it was over 400 nM.
Regarding `O=C(Cc1c[nH]cn1)Nc1ccc2cc1CCc1cccc(c1)Nc1ncc(Cl)c(n1)N2` [Example C33, N-[6-Chloro-2,4,8,22-tetraazatetracyclo[14.3.1.1(3,7).1(9,13)]docosa-1(20),3(22),4,6,9(21),10,12,16,18-nonaen-12-yl]-2-(1H-imidazol-4-yl)acetamide bis(trifluoroacetate)], the IC50 in test [1] was determined as 17 nM; in test [2] it was 733 nM; in test [3] it was 35 nM; against TYK2, 217 nM.
Take `O=C(c1cccnc1)N1CCC(CCOc2ccc3cc2CCc2cncc(c2)Nc2ncc(Cl)c(n2)N3)CC1` [Example D180, 6-Chloro-12-{2-[1-(pyridin-3-ylcarbonyl)piperidin-4-yl]ethoxy}-2,4,8,18,22-pentaazatetracyclo[14.3.1.1(3,7).1(9,13)]docosa-1(20),3(22),4,6,9(21),10,12,16,18-nonaene tris(trifluoroacetate)]: the IC50 is 255 nM in test [1] (Table D1), over 400 nM in test [2] (Table D1), over 400 nM in test [3] (Table D1) and over 400 nM at TYK2 (Table D1).
For the compound `O=C(COc1ccc2cc1CCc1cncc(c1)Nc1ncc(Cl)c(n1)N2)N1CCN(c2ccccc2)CC1` [Example D234, 6-Chloro-12-[2-oxo-2-(4-phenylpiperazin-1-yl)ethoxy]-2,4,8,18,22-pentaazatetracyclo[14.3.1.1(3,7).1(9,13)]docosa-1(20),3(22),4,6,9(21),10,12,16,18-nonaene tris(trifluoroacetate)], the IC50 was 41 nM in test [1] (Table D1), over 400 nM in test [2] (Table D1), 160 nM in test [3] (Table D1) and over 400 nM at TYK2 (Table D1).
Regarding `O=C(c1ccccc1)N1Cc2cccc(c2)Nc2ncc(Cl)c(n2)Nc2cccc1c2` [Example C22, 14-Benzoyl-6-chloro-2,4,8,14,22-pentaazatetracyclo[14.3.1.1(3,7).1(9,13)]docosa-1(20),3(22),4,6,9(21),10,12,16,18-nonaene], the concentration for half-maximal inhibition (IC50) was 24 nM in test [1], over 400 nM in test [2], 32 nM in test [3] and 88 nM at TYK2.
For the compound `CC(=O)N1CCC[C@@H](CC(=O)Nc2ccc3cc2CCc2cncc(c2)Nc2ncc(Cl)c(n2)N3)C1` [Example D204, 2-[(3S)-1-Acetylpiperidin-3-yl]-N-[6-chloro-2,4,8,18,22-pentaazatetracyclo[14.3.1.1(3,7).1(9,13)]docosa-1(20),3(22),4,6,9(21),10,12,16,18-nonaen-12-yl]acetamide bis(trifluoroacetate)], the IC50 was 7.2 nM in test [1] (Table D1), 101 nM in test [2] (Table D1), 12 nM in test [3] (Table D1) and 12 nM against TYK2 (Table D1).
As to `O=C(COc1ccc2cc1CCc1cncc(c1)Nc1ncc(Cl)c(n1)N2)N1CCN(c2ccncc2)CC1` [Example D243, 6-Chloro-12-[2-oxo-2-(4-pyridin-4-ylpiperazin-1-yl)ethoxy]-2,4,8,18,22-pentaazatetracyclo[14.3.1.1(3,7).1(9,13)]docosa-1(20),3(22),4,6,9(21),10,12,16,18-nonaene tris(trifluoroacetate)], the IC50 in test [1] (Table D1) is 60 nM; in test [2] (Table D1), over 400 nM; in test [3] (Table D1), 300 nM; against TYK2 (Table D1), 326 nM.
Turning to `O=C(Nc1ccccc1)N1CCC(COc2ccc3cc2CCc2cncc(c2)Nc2ncc(Cl)c(n2)N3)C1` (centres unmarked) [Example C59, 3-({[6-Chloro-2,4,8,18,22-pentaazatetracyclo[14.3.1.1(3,7).1(9,13)]docosa-1(20),3(22),4,6,9(21),10,12,16,18-nonaen-12-yl]oxy}methyl)-N-phenylpyrrolidine-1-carboxamide bis(trifluoroacetate)], the IC50 in test [1] was 102 nM; in test [2], over 400 nM; in test [3] it was over 400 nM; at TYK2, 371 nM.
As for `Cc1ccc(N2CCN(C(=O)COc3ccc4cc3CCc3cncc(c3)Nc3ncc(Cl)c(n3)N4)CC2)nc1` [Example D246, 6-Chloro-12-{2-[4-(5-methylpyridin-2-yl)piperazin-1-yl]-2-oxoethoxy}-2,4,8,18,22-pentaazatetracyclo[14.3.1.1(3,7).1(9,13)]docosa-1(20),3(22),4,6,9(21),10,12,16,18-nonaene tris(trifluoroacetate)], the IC50 is 30 nM in test [1] (Table D1), over 400 nM in test [2] (Table D1), 226 nM in test [3] (Table D1) and over 400 nM on TYK2 (Table D1).
As to `O=C(C[C@@H]1CCN(c2nc3cccnc3o2)C1)Nc1ccc2cc1CCc1cncc(c1)Nc1ncc(Cl)c(n1)N2` [Example D140, N-[6-Chloro-2,4,8,18,22-pentaazatetracyclo[14.3.1.1(3,7).1(9,13)]docosa-1(20),3(22),4,6,9(21),10,12,16,18-nonaen-12-yl]-2-[(3S)-1-[1,3]oxazolo[5,4-b]pyridin-2-ylpyrrolidin-3-yl]acetamide tris(trifluoroacetate)], the IC50 in test [1] (Table D1) was 8.6 nM; in test [2] (Table D1), over 1000 nM; in test [3] (Table D1) it was 83 nM; against TYK2 (Table D1), 226 nM.
As to `O=C(CC1CCN(c2nccs2)C1)Nc1ccc2cc1CCc1cncc(c1)Nc1ncc(Cl)c(n1)N2` (centres unmarked) [Example D154, N-[6-Chloro-2,4,8,18,22-pentaazatetracyclo[14.3.1.1(3,7).1(9,13)]docosa-1(20),3(22),4,6,9(21),10,12,16,18-nonaen-12-yl]-2-[1-(1,3-thiazol-2-yl)pyrrolidin-3-yl]acetamide tris(trifluoroacetate)], the IC50 in test [1] (Table D1) was 7.8 nM; in test [2] (Table D1) it was over 400 nM; in test [3] (Table D1) it was 59 nM; against TYK2 (Table D1) it was 226 nM.
The matching figures for `CN1c2cccc(c2)CCc2cncc(c2)Nc2nccc1n2` [Example D224, 8-Methyl-2,4,8,18,22-pentaazatetracyclo[14.3.1.1(3,7).1(9,13)]docosa-1(20),3(22),4,6,9(21),10,12,16,18-nonaene bis(trifluoroacetate)]: 300 nM, over 400 nM, 126 nM and over 400 nM.
With `O=C(Cn1c(=O)oc2c3cc(cc21)Nc1nc(ncc1Cl)Nc1cccc(c1)CC3)Nc1ccccc1` [Example D185, 2-[4-Chloro-19-oxo-18-oxa-2,6,8,20,25-pentaazapentacyclo[14.6.1.1(3,7).1(9,13).0(17,21)]pentacosa-1(23),3(25),4,6,9(24),10,12,16,21-nonaen-20-yl]-N-phenylacetamide trifluoroacetate], the IC50 was found to be 108 nM in test [1] (Table D1), 196 nM in test [2] (Table D1), 49 nM in test [3] (Table D1) and 742 nM against TYK2 (Table D1).
